Experiment: oxygen radical absorbance capacity (ORAC) assay, antioxidant (AOX) strength testing
Settings: 0.5% ferulic acid, 0.5% salicylic acid
Text: The peroxyl radical, generated from the thermal decomposition of 2,2'-azobis-2-methyl-propanimidamide dihydrochloride (AAPH), will quench a fluorescent probe by a hydrogen atom transfer reaction. In the presence of an antioxidant, however, the molecule will initially block or prevent the quenching of the probe, causing a delay in the fluorescence decay profile. The area under the fluorescence decay curves for samples with and without the presence of an antioxidant are compared to that of a standard reference material and the peroxyl radical antioxidant capacity is determined. References disclosing ORAC assays include Cao G, Alessio H, Cutler R (1993). “Oxygen-radical absorbance capacity assay for antioxidants”. Free Radic Biol Med 14 (3): 303-11; Ou B, Hampsch-Woodill M, Prior R (2001). “Development and validation of an improved oxygen radical absorbance capacity assay using fluorescein as the fluorescent probe”. J Agric Food Chem 49 (10): 4619-26; Huang D, Ou B, Prior R (2005). “The chemistry behind antioxidant capacity assays”. J. Agric. Food Chem. 53 (6): 1841-56; and Garrett A R, Murray B K, Robison […] (2010). “Measuring antioxidant capacity using the ORAC and TOSC assays”. Advanced Protocols in Oxidative Stress II: Methods in Molecular Biology (series), Donald J Armstrong (ed) 594: 251-62.

Structure (SMILES)	contribution to antioxidant potential of the association (Zinc PCA 0.5% added to compositions with 15% ascorbic acid)	effect on overall antioxidant capacity of the association (1% gallic acid added to 15% ascorbic acid)	effect on overall antioxidant capacity of the association (5% gallic acid added to 15% ascorbic acid)
O=C1CC[C@@H](C(=O)[O-])N1.O=C1CC[C@@H](C(=O)[O-])N1.[Zn+2] [Zinc PCA]	not found to be a contributing factor	–	–
O=C(O)c1cc(O)c(O)c(O)c1 [gallic acid, 3,4,5-trihydroxybenzoic acid]	–	modest	significant
